From ChEMBL document CHEMBL1138221, “Synthesis and evaluation of multisubstrate bicyclic pyrimidine nucleoside inhibitors of human thymidine phosphorylase” (J Med Chem, 2006)

Experiment: Stability in acidic buffer at pH 1.0 in 37 degC
Type: physicochemical
Conditions: for Stability: buffer

| Structure (SMILES) | Stability | half-life (acidic buffer) |
| --- | --- | --- |
| Cc1cn([C@@H]2O[C@H](CO)[C@H]3C[C@H](CP(=O)(O)O)O[C@H]32)c(=O)[nH]c1=O | Stable |  |
| Cc1cn([C@@H]2O[C@H](CO)[C@H]3C[C@@H](CP(=O)(O)O)O[C@H]32)c(=O)[nH]c1=O | Stable |  |
| Cc1cn([C@@H]2O[C@H](CO)[C@H]3O[C@@H](CP(=O)(O)O)O[C@H]32)c(=O)[nH]c1=O |  | 98 h |
| Cc1cn([C@@H]2O[C@H](CO)[C@H]3O[C@@H](CP(=O)(O)O)C[C@H]32)c(=O)[nH]c1=O | Stable |  |
